Measured values taken from patent US20250011300A1, “PIPERAZINYLSULFONYLARYL COMPOUNDS FOR TREATMENT OF BACTERIAL INFECTIONS” (Hoffmann-La Roche Inc., priority 2021, published 2025).
≈ marks a conversion by molar mass, not a printed value. Read-outs that look alike come from different tables or passages of the source.

What was measured:
[1] = molecular target: Escherichia coli LpxH (UDP-2,3-diacylglucosamine hydrolase) (Escherichia coli (strain K12), UniProt P43341); assay: 50% Inhibitory Concentration (IC50) to LpxH, UMP/CMP-Glo Glycosyltransferase Assay kit; format: biochemical
Procedure: Example 121: 50% Inhibitory Concentration (IC50) to UDP-2,3-diacylglucosamine hydrolase (LpxH)
The inhibitory potency of molecules to UDP-2,3-diacylglucosamine hydrolase (LpxH) was determined using the UMP/CMP-Glo™ Glycosyltransferase Assay kit. LpxH hydrolyzes the pyrophosphate bond of UDP-2,3-diacylglucosamine (UDP-DAG) to yield 2,3-diacylglucosamine 1-phosphate (lipid X) and UMP. The assay kit could quantify the UMP production by convert the UMP to ATP and generate light in a luciferase reaction. The compound's effect on the LpxH activity is detected by measuring the light using a luminometer (Envision).

[2] = test system: K. pneumonia (ATCC 43816); assay: Minimal Inhibitory Concentration (MIC) assay, K. pneumonia; format: cell-based; settings: Klebsiella pneumoniae, read-out: MIC K. pneumoniae ATCC43816
Procedure: (§1) Example 122: Minimal Inhibitory Concentration Protocol (MIC) Assay
(§2) The in vitro potency of compounds to inhibit E. coli (ATCC 25922) and K. pneumonia (ATCC 43816) growth was assessed by MIC (Minimal Inhibitory Concentration) assay. Samples were prepared from 10 mM DMSO stock solutions. After serial 2-fold dilution in DMSO in a master plate (Greiner, Cat No: 651201), 180 μL sterile distilled water was added to 20 μL each aliquot of the samples. Then 10 μL diluted compounds were transferred into a new assay plate (Costar, 3599).
(§3) The growth medium Cation-Adjusted Mueller Hinton Broth (CAMHB) was prepared by adding the 20 mg per liter CaCl2) and 20 mg per liter MgCl2 into the MHB medium (Jianglai Company, sterilized).
(§4) Vials of each of the test microorganisms were maintained frozen in the vapor phase of a liquid nitrogen freezer. The bacteria E. coli ATCC 25922 (KWIKSTIK, 0335K) and K. pneumonia ATCC 43816 were taken out from liquid nitrogen freezer, then thawed in room temperature, and diluted in the CAMHB medium to achieve a final inoculum of 5×10^5 CFU/mL. 90 μL CAMHB with bacteria was dispensed to the assay plate and pipetted 5 times.
(§5) Then the assay plates were incubated for 20 hours at 35° C. in ambient air. Following incubation, the MIC (μg/mL), the lowest concentration of drug that inhibits visible growth of the microorganism was read and recorded throw the microscope.

[3] = test system: E. coli (ATCC 25922); assay: Minimal Inhibitory Concentration (MIC) assay, E. coli; format: cell-based; settings: Escherichia coli, read-out: MIC E. coli ATCC 25922
Procedure: as §1, §2, §3, §4, §5

[4] = K. pneumoniae ATCC43816, CAMHB, 20 hours at 35° C.
[5] = ATCC25922, E. coli ATCC 25922, CAMHB, 20 hours at 35° C.

Sequence of Escherichia coli LpxH (UDP-2,3-diacylglucosamine hydrolase) (P43341 whole entry): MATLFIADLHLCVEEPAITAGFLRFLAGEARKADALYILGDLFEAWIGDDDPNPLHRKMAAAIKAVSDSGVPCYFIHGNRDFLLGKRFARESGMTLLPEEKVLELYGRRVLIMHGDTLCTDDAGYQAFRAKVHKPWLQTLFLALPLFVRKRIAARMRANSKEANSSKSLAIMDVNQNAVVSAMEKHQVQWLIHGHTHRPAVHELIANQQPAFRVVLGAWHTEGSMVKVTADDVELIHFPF

`NCC1CC(=O)N(c2ccc(S(=O)(=O)N3CCN(c4cc(C(F)(F)F)cc(Cl)n4)CC3)cc2)C1` (stereo not drawn) [Example 2, 4-(Aminomethyl)-1-[4-[4-[6-chloro-4-(trifluoromethyl)-2-pyridyl]piperazin-1-yl]sulfonyl-phenyl]pyrrolidin-2-one] showed an IC50 [1] of 84.9 nM, an MIC [2, 4] of 3.95 µg/mL (≈ 7.63 µM) and an MIC [3, 5] of 1.98 µg/mL (≈ 3.82 µM).

With `NCC1CN(c2ccc(S(=O)(=O)N3CCN(c4cc(C(F)(F)F)cc(Cl)n4)CC3)cc2)C(=O)O1` (stereo not drawn) [Example 3, 5-(Aminomethyl)-3-[4-[4-[6-chloro-4-(trifluoromethyl)-2-pyridyl]piperazin-1-yl]sulfonylphenyl]oxazolidin-2-one] the IC50 [1] was 460 nM, the MIC [2, 4] was 1.98 µg/mL (≈ 3.81 µM) and the MIC [3, 5] was 3.96 µg/mL (≈ 7.62 µM).

Work on `CC(=O)NCC1CN(c2ccc(S(=O)(=O)N3CCN(c4cc(C(F)(F)F)cc(Cl)n4)CC3)cc2)C(=O)O1` (stereo not drawn) [Example 4, N-[[3-[4-[4-[6-chloro-4-(trifluoromethyl)-2-pyridyl]piperazin-1-yl]sulfonylphenyl]-2-oxo-oxazolidin-5-yl]methyl]acetamide] yielded an IC50 [1] of 28.5 nM, an MIC [2, 4] of 7.03 µg/mL (≈ 12.5 µM) and an MIC [3, 5] of 3.51 µg/mL (≈ 6.25 µM).

Compound `CC1(C)C(=O)N(c2ccc(S(=O)(=O)N3CCN(c4cc(C(F)(F)F)cc(Cl)n4)CC3)cc2)CC1N` (stereo not drawn) [Example 5, 4-Amino-1-[4-[4-[6-chloro-4-(trifluoromethyl)-2-pyridyl]piperazin-1-yl]sulfonylphenyl]-3,3-dimethyl-pyrrolidin-2-one] has an IC50 [1] of 154 nM, an MIC [2, 4] of 16.1 µg/mL (≈ 30.4 µM) and an MIC [3, 5] of 8.08 µg/mL (≈ 15.2 µM).

`NCC1COC(=O)N1c1ccc(S(=O)(=O)N2CCN(c3cc(C(F)(F)F)cc(Cl)n3)CC2)cc1` (stereo not drawn) [Example 6, 4-(Aminomethyl)-3-[4-[4-[6-chloro-4-(trifluoromethyl)-2-pyridyl]piperazin-1-yl]sulfonylphenyl]oxazolidin-2-one] was tested, and the IC50 [1] was 44.2 nM, the MIC [2, 4] was 1.98 µg/mL (≈ 3.81 µM) and the MIC [3, 5] was 1.98 µg/mL (≈ 3.81 µM).

Work on `N[C@H]1CN(c2ccc(S(=O)(=O)N3CCN(c4cc(C(F)(F)F)cc(Cl)n4)CC3)cc2)C1=O` [Example 7, (3S)-3-amino-1-[4-[4-[6-chloro-4-(trifluoromethyl)-2-pyridyl]piperazin-1-yl]sulfonylphenyl]azetidin-2-one] yielded an IC50 [1] of 63.3 nM, an MIC [2, 4] of 5.66 µg/mL (≈ 11.6 µM) and an MIC [3, 5] of 3.78 µg/mL (≈ 7.72 µM).

`NC1CCN(c2ccc(S(=O)(=O)N3CCN(c4cc(C(F)(F)F)cc(Cl)n4)CC3)cc2)C1=O` (stereo not drawn) [Example 8, 3-Amino-1-[4-[4-[6-chloro-4-(trifluoromethyl)-2-pyridyl]piperazin-1-yl]sulfonylphenyl]pyrrolidin-2-one] was tested, and the IC50 [1] was 117 nM, the MIC [2, 4] was 7.72 µg/mL (≈ 15.3 µM) and the MIC [3, 5] was 3.86 µg/mL (≈ 7.66 µM).

In the case of `NCCC1CN(c2ccc(S(=O)(=O)N3CCN(c4cc(C(F)(F)F)cc(Cl)n4)CC3)cc2)C(=O)O1` (stereo not drawn) [Example 9, 5-(2-Aminoethyl)-3-[4-[4-[6-chloro-4-(trifluoromethyl)-2-pyridyl]piperazin-1-yl]sulfonylphenyl]oxazolidin-2-one], the IC50 [1] is reported as 24.3 nM, the MIC [2, 4] is reported as 3.57 µg/mL (≈ 6.69 µM) and the MIC [3, 5] is reported as 1.78 µg/mL (≈ 3.33 µM).

With `O=C1CC2(CCCCN2)CN1c1ccc(S(=O)(=O)N2CCN(c3cc(C(F)(F)F)cc(Cl)n3)CC2)cc1` (stereo not drawn) [Example 10, 2-[4-[4-[6-Chloro-4-(trifluoromethyl)-2-pyridyl]piperazin-1-yl]sulfonylphenyl]-2,6-diazaspiro[4.5]decan-3-one] the IC50 [1] was 19.7 nM, the MIC [2, 4] was 4.2 µg/mL (≈ 7.53 µM) and the MIC [3, 5] was 1.05 µg/mL (≈ 1.88 µM).

For `O=C1CC2(CCNCC2)CN1c1ccc(S(=O)(=O)N2CCN(c3cc(C(F)(F)F)cc(Cl)n3)CC2)cc1` [Example 11, 2-[4-[4-[6-Chloro-4-(trifluoromethyl)-2-pyridyl]piperazin-1-yl]sulfonylphenyl]-2,8-diazaspiro[4.5]decan-3-one], the IC50 [1] was 23.3 nM, the MIC [2, 4] was 4.2 µg/mL (≈ 7.53 µM) and the MIC [3, 5] was 2.1 µg/mL (≈ 3.76 µM).

For `O=C1CC2(CNC2)CN1c1ccc(S(=O)(=O)N2CCN(c3cc(C(F)(F)F)cc(Cl)n3)CC2)cc1` [Example 12, 6-[4-[4-[6-Chloro-4-(trifluoromethyl)-2-pyridyl]piperazin-1-yl]sulfonylphenyl]-2,6-diazaspiro[3.4]octan-7-one], the IC50 [1] was 69.8 nM, the MIC [2, 4] was 4.03 µg/mL (≈ 7.6 µM) and the MIC [3, 5] was 2.01 µg/mL (≈ 3.79 µM).

`O=C1OC2(CNC2)CN1c1ccc(S(=O)(=O)N2CCN(c3cc(C(F)(F)F)cc(Cl)n3)CC2)cc1` [Example 13] gave an IC50 [1] of 128 nM, an MIC [2, 4] of 2.49 µg/mL (≈ 4.68 µM) and an MIC [3, 5] of 0.83 µg/mL (≈ 1.56 µM).

Work on `O=C1OC2(CCNCC2)CN1c1ccc(S(=O)(=O)N2CCN(c3cc(C(F)(F)F)cc(Cl)n3)CC2)cc1` [Example 14, 3-[4-[4-[6-Chloro-4-(trifluoromethyl)-2-pyridyl]piperazin-1-yl]sulfonylphenyl]-1-oxa-3,8-diazaspiro[4.5]decan-2-one] yielded an IC50 [1] of 96.4 nM, an MIC [2, 4] of 3.5 µg/mL (≈ 6.25 µM) and an MIC [3, 5] of 1.75 µg/mL (≈ 3.13 µM).

`O=C1O[C@H]2CNC[C@H]2N1c1ccc(S(=O)(=O)N2CCN(c3cc(C(F)(F)F)cc(Cl)n3)CC2)cc1` [Example 15, (3aR,6aS)-3-[4-[4-[6-chloro-4-(trifluoromethyl)-2-pyridyl]piperazin-1-yl]sulfonylphenyl]-4,5,6,6a-tetrahydro-3aH-pyrrolo[3,4-d]oxazol-2-one] was tested, and the IC50 [1] was 95.9 nM, the MIC [2, 4] was 2.02 µg/mL (≈ 3.8 µM) and the MIC [3, 5] was 1.01 µg/mL (≈ 1.9 µM).

With `O=C1O[C@H]2CCNC[C@H]2N1c1ccc(S(=O)(=O)N2CCN(c3cc(C(F)(F)F)cc(Cl)n3)CC2)cc1` [Example 16, (3aR,7aS)-3-[4-[4-[6-chloro-4-(trifluoromethyl)-2-pyridyl]piperazin-1-yl]sulfonylphenyl]-3a,4,5,6,7,7a-hexahydrooxazolo[4,5-c]pyridin-2-one] the IC50 [1] was 38.5 nM, the MIC [2, 4] was 1.03 µg/mL (≈ 1.89 µM) and the MIC [3, 5] was 1.03 µg/mL (≈ 1.89 µM).

`O=C1O[C@@H]2CNCC[C@@H]2N1c1ccc(S(=O)(=O)N2CCN(c3cc(C(F)(F)F)cc(Cl)n3)CC2)cc1` [Example 17, (3aR,7aS)-1-[4-[4-[6-chloro-4-(trifluoromethyl)-2-pyridyl]piperazin-1-yl]sulfonylphenyl]-3a,4,5,6,7,7a-hexahydrooxazolo[5,4-c]pyridin-2-one] gave an IC50 [1] of 482 nM, an MIC ([2]; ATCC43816, 20 h) of 3.64 µg/mL (≈ 6.67 µM) and an MIC ([3]; ATCC25922, 20 h) of 1.82 µg/mL (≈ 3.33 µM).

`O=C1O[C@@H]2CCNC[C@@H]2N1c1ccc(S(=O)(=O)N2CCN(c3cc(C(F)(F)F)cc(Cl)n3)CC2)cc1` [Example 18, (3aS,7aR)-3-[4-[4-[6-chloro-4-(trifluoromethyl)-2-pyridyl]piperazin-1-yl]sulfonylphenyl]-3a,4,5,6,7,7a-hexahydrooxazolo[4,5-c]pyridin-2-one] was tested, and the IC50 [1] was 152 nM, the MIC [2, 4] was 0.91 µg/mL (≈ 1.67 µM) and the MIC [3, 5] was 0.91 µg/mL (≈ 1.67 µM).

In the case of `O=C1O[C@@H]2CCCNC[C@@H]2N1c1ccc(S(=O)(=O)N2CCN(c3cc(C(F)(F)F)cc(Cl)n3)CC2)cc1` [Example 19, (3aS,8aR)-3-[4-[4-[6-chloro-4-(trifluoromethyl)-2-pyridyl]piperazin-1-yl]sulfonylphenyl]-4,5,6,7,8,8a-hexahydro-3aH-oxazolo[4,5-c]azepin-2-one], the IC50 [1] is reported as 33.9 nM, the MIC [2, 4] is reported as 1.05 µg/mL (≈ 1.88 µM) and the MIC [3, 5] is reported as 1.05 µg/mL (≈ 1.88 µM).

Work on `O=C1CC2NCCC2N1c1ccc(S(=O)(=O)N2CCN(c3cc(C(F)(F)F)cc(Cl)n3)CC2)cc1` (stereo not drawn) [Example 20, 4-[4-[4-[6-Chloro-4-(trifluoromethyl)-2-pyridyl]piperazin-1-yl]sulfonylphenyl]-1,2,3,3a,6,6a-hexahydropyrrolo[3,2-b]pyrrol-5-one] yielded an IC50 [1] of 62.3 nM, an MIC [2, 4] of 3.54 µg/mL (≈ 6.68 µM) and an MIC [3, 5] of 1.77 µg/mL (≈ 3.34 µM).

Work on `O=C1OC2C(O)C(CO)OC2N1c1ccc(S(=O)(=O)N2CCN(c3cc(C(F)(F)F)cc(Cl)n3)CC2)cc1` (stereo not drawn) [Example 21, 3-[4-[4-[6-Chloro-4-(trifluoromethyl)-2-pyridyl]piperazin-1-yl]sulfonylphenyl]-6-hydroxy-5-(hydroxymethyl)-3a,5,6,6a-tetrahydrofuro[2,3-d]oxazol-2-one] yielded an IC50 [1] of 10.4 nM, an MIC [2, 4] of 1.81 µg/mL (≈ 3.13 µM) and an MIC [3, 5] of 0.91 µg/mL (≈ 1.57 µM).

`CO[C@@H]1OC(C2OC(=O)N(c3ccc(S(=O)(=O)N4CCN(c5cc(C(F)(F)F)cc(Cl)n5)CC4)cc3)C2C)[C@@H](O)[C@H]1O` (stereo partly drawn) [Example 22, 3-[4-[4-[6-Chloro-4-(trifluoromethyl)-2-pyridyl]piperazin-1-yl]sulfonylphenyl]-5-[(3S,4R,5R)-3,4-dihydroxy-5-methoxy-tetrahydrofuran-2-yl]-4-methyl-oxazolidin-2-one] gave an IC50 [1] of less than 3.14 nM, an MIC [2, 4] of 1.99 µg/mL (≈ 3.12 µM) and an MIC [3, 5] of 1.99 µg/mL (≈ 3.12 µM).
